Test [1] deals with T1, Human Tryptophan 2,3-dioxygenase (TDO) (Homo sapiens, UniProt P48775).
T1 construct: His tag (N); made in house; host or cells: E. coli
Put plainly: Human TDO enzymatic assay (kynurenine level). It is filed as biochemical. To be noted: for IC50: 1 nM TDO, 350 μM L-Trp, geometric mean, read-out: TDO GMean: IC50 (μM) (Biochemical Assay). In a few lines:
(§1)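 Kynurenine formed is measured after TCA quench and 50 °C hydrolysis, with % inhibition against full-reaction and no-enzyme controls (5% DMSO). IDO: 6 nM enzyme, 10 μM L-Trp, 5 μM methylene blue, 20 min; TDO: 1 nM, 350 μM L-Trp, 0.4 μM methylene blue, 70 min; both pH 6.5, room temp, E. coli-expressed His-tagged.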

Test [2] addresses T2, Human Indoleamine 2,3-dioxygenase (IDO) (Homo sapiens, UniProt P14902).
T2 construct: His tag (N); made in house; host or cells: E. coli
Put plainly: Human IDO enzymatic assay (kynurenine level). It is filed as biochemical. Conditions: for IC50: 6 nM IDO, 10 μM L-Trp, geometric mean, read-out: IDO1 GMean: IC50 (μM) (Biochemical Assay). In a few lines: as §1

Test [3] addresses T3, human TDO (TDO-expressing HEK293 cells) (Homo sapiens, UniProt P48775).
T3 construct: expressed in transfected cells
As to the kind of experiment: Cell based kynurenine assay, TDO-expressing HEK293 cell clones. Conditions: for IC50: TDO-expressing HEK293 cells, geometric mean, read-out: HEK293 TDO Kynurenine GMean IC50 (μM) (Cellular Assay). Summed up: (§2)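 Steps: seed IDO1- or TDO-expressing HEK293 cells at 2.5×10^4 per well; add compound dilutions; incubate 24 h; transfer supernatant and determine kynurenine; derive IC50 via nonlinear regression of percent inhibition.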

Test [4] deals with T4, human IDO (IDO1-expressing HEK293 cells) (Homo sapiens, UniProt P14902).
T4 construct: expressed in transfected cells
Put plainly: Cell based kynurenine assay, IDO1-expressing HEK293 cell clones. To be noted: for IC50: IDO1-expressing HEK293 cells, geometric mean, read-out: HEK293 IDO1 Kynurenine GMean IC50 (μM) (Cellular Assay). In a few lines:
as §2

pIC50: −log10 of the molar value. Where two headings read alike, the source gives them in different places.

T3 sequence (P48775 whole entry): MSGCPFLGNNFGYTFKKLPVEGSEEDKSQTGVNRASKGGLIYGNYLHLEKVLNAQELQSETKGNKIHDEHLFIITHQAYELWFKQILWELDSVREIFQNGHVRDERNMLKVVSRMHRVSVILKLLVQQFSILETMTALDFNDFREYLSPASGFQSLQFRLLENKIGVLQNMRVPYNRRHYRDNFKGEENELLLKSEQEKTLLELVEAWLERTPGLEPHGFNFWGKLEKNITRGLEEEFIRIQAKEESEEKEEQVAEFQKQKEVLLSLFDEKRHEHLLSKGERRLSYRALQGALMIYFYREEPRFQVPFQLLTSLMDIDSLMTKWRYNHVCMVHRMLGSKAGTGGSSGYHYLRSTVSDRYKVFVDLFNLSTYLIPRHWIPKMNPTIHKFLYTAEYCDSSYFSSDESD
T1 sequence (P48775 whole entry): as above
T4 sequence (P14902 whole entry): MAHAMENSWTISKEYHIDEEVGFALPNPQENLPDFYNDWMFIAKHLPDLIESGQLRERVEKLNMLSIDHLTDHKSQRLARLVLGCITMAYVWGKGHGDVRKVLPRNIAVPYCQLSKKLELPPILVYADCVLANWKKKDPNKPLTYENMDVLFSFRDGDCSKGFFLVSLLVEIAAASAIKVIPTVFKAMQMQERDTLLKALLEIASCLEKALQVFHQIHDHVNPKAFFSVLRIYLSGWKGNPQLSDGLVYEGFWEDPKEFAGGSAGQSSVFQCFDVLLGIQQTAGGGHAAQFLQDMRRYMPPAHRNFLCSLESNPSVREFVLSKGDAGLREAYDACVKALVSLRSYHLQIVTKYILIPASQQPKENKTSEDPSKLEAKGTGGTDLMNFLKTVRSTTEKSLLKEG
T2 sequence (P14902 whole entry): as above

Consider `CC1(C(=O)N2CCC(C(C)(C)C(O)c3cc(Cl)cc4cn[nH]c34)CC2)CC1` (stereo not shown) [Compound P-0457, (4-(1-(5-chloro-1H-indazol-7-yl)-1-hydroxy-2-methylpropan-2-yl)piperidin-1-yl)(1-methylcyclopropyl) methanone], for which the half-inhibitory concentration (IC50) in test [1], in test [2], in test [3] (24 hours) and in test [4] (24 hours) was 0.0001 to 10 µM in each case.
In the case of `CC(C)(C(O)c1cc(Cl)cc2cn[nH]c12)[C@H]1C[C@H]2CC[C@@H](C1)N2S(C)(=O)=O` (stereo partly drawn) [Compound P-0271, 1-(5-chloro-1H-indazol-7-yl)-2-methyl-2-((1R,3r,5S)-8-(methylsulfonyl)-8-azabicyclo[3.2.1]octan-3-yl)propan-1-ol], the IC50 in test [1], in test [2], in test [3] (24 hours incubation) and in test [4] (24 hours incubation) was 0.0001 to 10 µM each time.
Take `CCC1(C(O)c2cc(Cl)cc3cn[nH]c23)CCC1` (stereo not shown) [Compound P-0223, (5-chloro-1H-indazol-7-yl)(1-ethylcyclobutyl)methanol]: the IC50 in test [1], in test [2], in test [3] (24 hours incubation) and in test [4] (24 hours incubation) was 0.0001 to 10 µM throughout.
Take `O=C(Nc1cccc(F)c1)N1CCC(C(F)(F)C(O)c2cc(Cl)cc3cn[nH]c23)CC1` (stereo not shown) [Compound P-0152, 4-(2-(5-chloro-1H-indazol-7-yl)-1,1-difluoro-2-hydroxyethyl)-N-(3-fluorophenyl)piperidine-1-carboxamide]: the IC50 in test [1], in test [2], in test [3] (24 hours incubation) and in test [4] (24 hours incubation) was 0.0001 to 10 µM throughout.
As to `CC(=O)N1CCC(C(C)(C)C(O)c2cc(Cl)cc3[nH]ncc23)CC1` (stereo not shown) [Compound P-0172, 1-(4-(1-(6-chloro-1H-indazol-4-yl)-1-hydroxy-2-methylpropan-2-yl)piperidin-1-yl)ethan-1-one], the half-inhibitory concentration (IC50) in test [1], in test [2], in test [3] (24 hours incubation) and in test [4] (24 hours incubation) was 0.0001 to 10 µM throughout.
Take `CC(C)(C1CCN(C(=O)CC#N)CC1)[C@H](O)c1c(F)c(Cl)cc2cn[nH]c12` [Compound P-0505, (S)-3-(4-(1-(5-chloro-6-fluoro-1H-indazol-7-yl)-1-hydroxy-2-methylpropan-2-yl)piperidin-1-yl)-3-oxopropanenitrile]: the IC50 in test [1], in test [2], in test [3] (24 hours) and in test [4] (24 hours) was 0.0001 to 10 µM in each case.
Regarding `CC(C)C(=O)N1CCC(C(C)(C)[C@H](O)c2cc(Cl)cc3cn[nH]c23)CC1` [Compound P-0544, (S)-1-(4-(1-(5-chloro-1H-indazol-7-yl)-1-hydroxy-2-methylpropan-2-yl)piperidin-1-yl)-2-methylpropan-1-one], the IC50 in test [1], in test [2], in test [3] (24 hours) and in test [4] (24 hours) was 0.0001 to 10 µM in each case.
With `O=C(Nc1ccccc1)N1CCC(C(F)(F)C(O)c2cc(Cl)cc3cn[nH]c23)CC1` (stereo not shown) [Compound P-0150, 4-(2-(5-chloro-1H-indazol-7-yl)-1,1-difluoro-2-hydroxyethyl)-N-phenylpiperidine-1-carboxamide], the IC50 in test [1], in test [2], in test [3] (24 hours incubation) and in test [4] (24 hours incubation) was 0.0001 to 10 µM each time.
With `C[C@H](NC(=O)N1CCC(C(C)(C)C(O)c2cc(Cl)cc3cn[nH]c23)CC1)c1ccccn1` (stereo partly drawn) [Compound P-0478, 4-(1-(5-chloro-1H-indazol-7-yl)-1-hydroxy-2-methylpropan-2-yl)-N-((S)-1-(pyridin-2-yl)ethyl)piperidine-1-carboxamide], the 50% inhibitory concentration (IC50) in test [1], in test [2], in test [3] (24 hours) and in test [4] (24 hours) was 0.0001 to 10 µM throughout.
On to `O=C(Nc1cccc(Cl)c1)N1CCC(C(F)(F)C(O)c2cc(Cl)cc3cn[nH]c23)CC1` (stereo not shown) [Compound P-0488, 4-(2-(5-chloro-1H-indazol-7-yl)-1,1-difluoro-2-hydroxyethyl)-N-(3-chlorophenyl) piperidine-1-carboxamide], for which the IC50 in test [1], in test [2], in test [3] (24 hours) and in test [4] (24 hours) was 0.0001 to 10 µM each time.
`CC(C)(C1CCN(C(=O)c2c(F)cccc2Cl)CC1)C(O)c1cc(Cl)cc2cn[nH]c12` (stereo not shown) [Compound P-0369, (4-(1-(5-chloro-1H-indazol-7-yl)-1-hydroxy-2-methylpropan-2-yl)piperidin-1-yl)(2-chloro-6-fluorophenyl) methanone]: the half-maximal inhibitory concentration (IC50) in test [1], in test [2], in test [3] (24 hours incubation) and in test [4] (24 hours incubation) was 0.0001 to 10 µM throughout.
For the molecule `CC(C)(C1CCN(S(C)(=O)=O)CC1)C(O)c1cc(Cl)cc2cn[nH]c12` (stereo not shown) [drawing 814], the pIC50 in test [1] (biochemical assay, comparative examples, 4,6 versus 5,7 indazole, read-out: TDO) is 6.82; in test [2] (biochemical assay, comparative examples, 4,6 versus 5,7 indazole, read-out: IDO1), 7.52; in test [3] (cellular assay, HEK293, 24 hours, comparative examples, read-out: hTDO) it was 6.38; in test [4] (cellular assay, HEK293, 24 hours, comparative examples, read-out: hIDO1), 7.10.
Consider `CC(C)(C1CCN(C(=O)NC(=O)c2ccccc2)CC1)C(O)c1cc(Cl)cc2cn[nH]c12` (stereo not shown) [Compound P-0385, N-benzoyl-4-(1-(5-chloro-1H-indazol-7-yl)-1-hydroxy-2-methylpropan-2-yl)piperidine-1-carboxamide], for which the IC50 in test [1], in test [2], in test [3] (24 hours incubation) and in test [4] (24 hours incubation) was 0.0001 to 10 µM throughout.

The IC50 is the concentration at which inhibition is half-maximal.

Values taken from patent US10508085B2, “Compounds and methods for IDO and TDO modulation, and indications therefor” (Plexxikon Inc., priority 2016, dated 2019).
